# Source: patent US20160220510A1, “ANTIBIOTIC COMPOUNDS THAT INHIBIT BACTERIAL PROTEIN SYNTHESIS” (The Board of Regents of the University of Texas System, priority 2015, published 2016)
# Where a name gives a salt, the structure may show the parent alone. Read-outs that look alike come from different tables or passages of the source.
# Columns and labels:
# [1] = system: ribosome; test: Determination of molecular target (ribosome by default); format: biochemical, Pseudomonas aeruginosa; settings: no accessory protein inhibited
# Experimental: Nitrocellulose binding assays were used to determine inhibition of GDP exchange by EF-Tu as previously described in Bullard et al. “Effects of domain exchanges between Escherichia coli and mammalian mitochondrial EF-Tu on interactions with guanine nucleotides, aminoacyl-tRNA and ribosomes” 1999, Biochim. Biophys. Acta 1446:102-114, which is incorporated herein by reference, with the exception that the enzyme (1 μM) was pre-incubated with 132 μM compound for 15 min prior to the addition of [^3H]GDP. EF-Ts stimulates the exchange of GDP bound by EF-Tu. The ability of compounds to inhibit EF-Ts stimulation of GDP exchange by EF-Tu was measured in assays as described for EF-Tu/GDP exchange with the exceptions that EF-Ts was present at 0.05 μM and the time for the reaction was decreased from 30 min to 30 sec.
# Assays for ribosome-dependent GTP hydrolysis by EF-G were carried out in 50 μl reactions containing: 50 mM Tris-HCl (pH 7.5), 10 mM MgCl2, 70 mM NH4Cl, 1 mM dithiothreitol (DTT), 1.8 mM GTP, 0.4 μM P. aeruginosa ribosomes and 0.2 μM EF-G. Final concentrations of compounds in the assays were 132 μM. The amount of GTPase activity was determined by measurement of the amount of Pi liberated using a colorimetric GTPase assay kit (Novus Biologicals) per manufacturer's directions.
# [2] = system: Staphylococcus aureus (ATCC 29213); test: Broth microdilution MIC; format: cell-based; settings: ATCC29213, read-out: MIC S. aureus
# [3] = system: E. coli tolC mutant; test: Broth microdilution MIC; format: cell-based; settings: Escherichia coli, read-out: MIC E. coli tolC (efflux)
# [4] = system: Haemophilus influenzae (ATCC 49766); test: Broth microdilution MIC; format: cell-based; settings: ATCC49766
# [5] = system: Pseudomonas aeruginosa hypersensitive strain (ATCC 35151); test: Broth microdilution MIC; format: cell-based; settings: ATCC35151, read-out: MIC P. aeruginosa (hypersensitive)
# [6] = system: Moraxella catarrhalis (ATCC 25238); test: Broth microdilution MIC; format: cell-based; settings: ATCC25238
# [7] = target: P. aeruginosa PheRS (Pseudomonas aeruginosa, UniProt Q9I0A3+Q9I0A4); test: PheRS tRNA aminoacylation SPA assay; format: biochemical; settings: for Inhibition of Phenylalanyl-tRNA synthetase (PheRS), target found: 132 μM compound
# Experimental: SPA assays to determine inhibition of PheRS by chemical compounds were as described in Bullard et al. “Expression and characterization of a human mitochondrial phenylalanyl-tRNA synthetase” 1999, J. Mol. Biol. 288:567-577, which his incorporated herein by reference and in Ribble et al. Exceptions were that the enzyme mix was pre-incubated with 132 μM compound for 15 min prior to addition of tRNA. The reactions were stopped by the addition of 5 μl of 0.5 M EDTA. 400 μg of SPA beads (Ysi poly-L-lysine coated beads, Perkin Elmer) in 150 μl of 300 mM citrate buffer (pH 2.0) were added and the plates were analyzed as above.
# [8] = system: Gram (+) bacteria (E. faecalis or S. aureus); test: Time-kill experiments, Gram (+); settings: four-times the MIC, 0 to 24 hours
# Experimental: (§1) Time-kill experiments were performed according to the CLSI guidelines M26-A. H. influenzae (ATCC 49766), E. faecalis ATCC 29212, and Staphylococcus aureus (ATCC 29213) were from the American Type Culture Collection (Manassas, Va.). Growth media were Brain Heart Infusion and Trypticase Soy Broth from Remel (Lenexa, Kans.). For the experiments, 10 mL of broth medium was inoculated with 0.1 mL of a fresh overnight culture and grown at 35° C. with shaking (200 rpm) for 2-3 hours. Pre-warmed flasks containing 10 mL of medium alone or 10 mL of medium containing a test compound at 4×MIC were then inoculated with 0.1 mL of the exponentially growing cultures. Samples were removed at 0, 2, 4, 6, and 24 h, and serial dilutions were plated on blood agar to allow for colony enumeration and calculation of the live cell density.
# (§2) Time-kill experiments were performed according to the CLSI guideline M26-A to determine the efficacy against both Gram (+) and a Gram (−) organisms. […] The Gram (+) bacteria used was either E. faecalis or S. aureus, while the Gram (−) bacteria was H. influenzae. […] The compounds were tested in these assays at four-times the MIC and between 0 and 24 hours.
# [9] = system: Streptococcus pneumonia (ATCC 49619); test: Broth microdilution MIC; format: cell-based; settings: Streptococcus pneumoniae
# [10] = system: H. influenzae; test: Time-kill experiments, Gram (−); settings: four-times the MIC, 0 to 24 hours
# Experimental: as §1, §2
# [11] = system: Pseudomonas aeruginosa (ATCC 47085); test: Broth microdilution MIC; format: cell-based
# [12] = system: E. coli (ATCC 25922); test: Broth microdilution MIC; format: cell-based; settings: Escherichia coli
# [13] = system: Enterococcus faecalis (ATCC 29212); test: Broth microdilution MIC; format: cell-based
# [14] = system: P. aeruginosa aminoacylation/translation (A/T) protein synthesis system (ribosomes, PheRS, EF-Tu, EF-Ts, EF-G); test: aminoacylation/translation (A/T) scintillation proximity assay; format: biochemical, Pseudomonas aeruginosa; settings: all P. aeruginosa components
# Experimental: A scintillation proximity assay (SPA) was developed using P. aeruginosa components for the aminoacylation/translation (A/T) assay as described in Ribble et al. The complete assay (50 μl) contained 50 mM Tris-HCl (pH 7.5), 25 mM KCl, 10 mM MgCl2, 0.03 mM spermine, 1.5 mM ATP, 0.5 mM GTP, 40 μM [^3H]Phenylalanine (Phe) (75 cpm/pmol) and 0.3 mg/ml polyU mRNA. To maintain constant levels of ATP and GTP the assay contained a nucleotide regeneration system composed of 4 mM phosphoenolpyruvate (PEP) and 0.025 Units/μl pyruvate kinase (PK). The concentration of ribosomes and proteins in the assay were as follows: ribosome (0.2 μM), PheRS (0.1 μM), EF-Tu (1 μM), EF-Ts (0.05 μM) and EF-G (0.2 μM). These concentrations were arrived at through sequential rounds of optimization: each concentration represents the concentration just below the saturation point for each component of the reaction in the titration.
# The screening reactions were carried out in 96 well microtiter plates (Costar). Test compounds were equilibrated by addition of 33 μl of the protein/substrate mix (without tRNA) to 2 μl of chemical compound (3.2 mM) dissolved in 100% DMSO. […] Reactions were stopped by the addition of 5 μl of 0.5 M EDTA. 200 μg of SPA beads (RNA Binding Beads (YSI), Perkin Elmer) in 150 μl of 300 mM citrate buffer (pH 6.2) were added. The plates were analyzed using a 1450 Microbeta (Jet) liquid scintillation and luminescence counter (Wallac). Assays to determine IC50 values were as described above with the test compounds serially diluted from 200 μM to 0.4 μM. The concentration ranges of antibiotics as controls were as follows: spiramycin (0.02 μM to 20.0 μM), tylosin (0.02 μM to 20.0 μM), and fusidic acid (4 μM to 512 μM).
# [15] = ATCC49619, ATCC 49619, read-out: MIC S. pneumo
# [16] = ATCC47085, ATCC 47085, read-out: MIC P. aeruginosa
# [17] = ATCC25922, ATCC 25922, read-out: MIC E. coli
# [18] = ATCC29212, ATCC 29212, read-out: MIC E. faecalis
# Sequence of P. aeruginosa PheRS (Q9I0A3 whole entry): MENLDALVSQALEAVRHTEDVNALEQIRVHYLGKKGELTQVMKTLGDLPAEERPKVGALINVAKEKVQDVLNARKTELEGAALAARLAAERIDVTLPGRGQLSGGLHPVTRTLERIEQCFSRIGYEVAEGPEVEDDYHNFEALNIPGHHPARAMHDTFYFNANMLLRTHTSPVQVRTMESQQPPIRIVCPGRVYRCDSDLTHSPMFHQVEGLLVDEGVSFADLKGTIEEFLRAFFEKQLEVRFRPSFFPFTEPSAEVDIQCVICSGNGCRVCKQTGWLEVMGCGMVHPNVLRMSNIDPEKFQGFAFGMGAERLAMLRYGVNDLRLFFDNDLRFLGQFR
# Sequence of P. aeruginosa PheRS (Q9I0A4 whole entry): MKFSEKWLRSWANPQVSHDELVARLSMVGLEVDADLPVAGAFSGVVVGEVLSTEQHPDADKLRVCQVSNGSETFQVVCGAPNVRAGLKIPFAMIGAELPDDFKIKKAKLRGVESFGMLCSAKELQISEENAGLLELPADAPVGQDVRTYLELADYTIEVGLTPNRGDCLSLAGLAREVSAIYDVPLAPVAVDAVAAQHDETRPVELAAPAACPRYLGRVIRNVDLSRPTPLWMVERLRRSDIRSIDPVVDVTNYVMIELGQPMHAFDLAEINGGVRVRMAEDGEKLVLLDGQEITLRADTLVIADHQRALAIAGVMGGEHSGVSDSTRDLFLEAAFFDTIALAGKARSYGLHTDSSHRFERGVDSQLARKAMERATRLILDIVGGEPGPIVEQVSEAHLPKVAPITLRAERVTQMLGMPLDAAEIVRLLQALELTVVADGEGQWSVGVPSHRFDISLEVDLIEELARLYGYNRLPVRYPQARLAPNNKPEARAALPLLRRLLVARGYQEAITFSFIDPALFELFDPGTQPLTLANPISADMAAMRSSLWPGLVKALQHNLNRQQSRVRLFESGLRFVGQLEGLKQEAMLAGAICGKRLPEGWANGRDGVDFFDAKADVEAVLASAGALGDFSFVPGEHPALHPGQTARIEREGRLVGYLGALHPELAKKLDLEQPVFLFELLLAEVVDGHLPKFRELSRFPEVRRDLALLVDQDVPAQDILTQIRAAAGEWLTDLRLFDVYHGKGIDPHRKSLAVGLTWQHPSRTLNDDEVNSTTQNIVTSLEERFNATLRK
SMILES,Target found: ribosomal inhibitor [1],MIC [2],MIC [3],MIC [4],MIC [5],MIC [6],IC50 [7],"Inhibition of Phenylalanyl-tRNA synthetase (PheRS), target found [7]",Time-kill mode of action against Gram (+) bacteria [8],"MIC ([9]; ATCC49619, read-out: MIC S. pneumo)",Time-kill mode of action against Gram (−) bacteria [10],"MIC ([11]; ATCC47085, read-out: MIC P. aeruginosa)","MIC ([12]; ATCC25922, read-out: MIC E. coli)","MIC ([13]; ATCC29212, read-out: MIC E. faecalis)",IC50 [14],"MIC [9, 15]","MIC [11, 16]","MIC [12, 17]","MIC [13, 18]"
"NC(N)=NN=C(/C=C/c1ccc([N+](=O)[O-])o1)/C=C/c1ccc([N+](=O)[O-])o1 [2-[1,5-bis(5-nitrofuran-2-yl)penta-1,4-dien-3-ylideneamino]guanidine hydrochloride]",ribosomal inhibitor,,,,,,,,,,,,,,,,,,
"O=C(/C=C/c1ccccc1)c1ccc(O)cc1O [Class 1, (2E)-1-(2,4-Dihydroxyphenyl)-3-phenyl-2-propen-1-one]",,128 µg/mL,> 128 µg/mL,32 µg/mL,> 128 µg/mL,64 µg/mL,37 µM,inhibit,bactericidal,> 128 µg/mL,bactericidal,> 128 µg/mL,> 128 µg/mL,> 128 µg/mL,33 µM,,,,
"COC(=O)c1c(C)c2c(c(C)c1O)OC(=O)c1c(C)c(Cl)c(O)c(Cl)c1O2 [Class 2, Methyl 2,4-dichloro-3,8-dihydroxy-1,6,9-trimethyl-11-oxo-11H-dibenzo[b,e][1,4]dioxepine-7-carboxylate]",,128 µg/mL,16 µg/mL,32 µg/mL,8 µg/mL,1 µg/mL,9.8 µM,inhibit,bacteriostatic,,bacteriostatic,,,,59 µM,64 µg/mL,128 µg/mL,> 128 µg/mL,8 µg/mL
"O=C(N/N=C/c1ccc([N+](=O)[O-])o1)c1cc([N+](=O)[O-])cc([N+](=O)[O-])c1O [Class 4, N-[(1E)-2-(5-nitro(2-furyl))-1-azavinyl](2-hydroxy-3,5-dinitrophenyl)carboxamide]",,32 µg/mL,2 µg/mL,32 µg/mL,32 µg/mL,32 µg/mL,40 µM,,bacteriostatic,,bacteriostatic,,,,50.2 µM,128 µg/mL,32 µg/mL,> 128 µg/mL,128 µg/mL
"NC(N)=NN=C(/C=C/c1ccc([N+](=O)[O-])o1)/C=C/c1ccc([N+](=O)[O-])o1 [Class 5, 2-[1,5-bis(5-nitrofuran-2-yl)penta-1,4-dien-3-ylideneamino]guanidine hydrochloride]",,16 µg/mL,2 µg/mL,16 µg/mL,4 µg/mL,64 µg/mL,,,bactericidal,,bactericidal,,,,27.5 µM,32 µg/mL,128 µg/mL,> 128 µg/mL,128 µg/mL
"Cc1cc(C)nc(NC(=N)Nc2ccc(OCc3ccc(Cl)cc3)cc2)n1 [Class 6, (4,6-dimethylpyrimidin-2-yl)[({4-[(4-chlorophenyl)methoxy]phenyl}amino)iminomethyl]amine]",ribosomal inhibitor,32 µg/mL,16 µg/mL,32 µg/mL,16 µg/mL,64 µg/mL,,,bactericidal,,bactericidal,,,,25.8 µM,32 µg/mL,64 µg/mL,64 µg/mL,16 µg/mL
"O=C(N/N=C/c1ccc([N+](=O)[O-])o1)c1cc([N+](=O)[O-])cc([N+](=O)[O-])c1O [N-[(1E)-2-(5-nitro(2-furyl))-1-azavinyl](2-hydroxy-3,5-dinitrophenyl)carboxamide]",,,,,,,,inhibit,,,,,,,,,,,
